The test deals with T1, MeCP2-TBL1 interaction (MeCP2-SmBiT / TBL1-LgBiT) (Mus musculus, UniProt Q9QXE7).
T1 construct: expressed in transfected cells; crude lysate used as a cell-free assay
T1 sequence (Q9QXE7 166-527): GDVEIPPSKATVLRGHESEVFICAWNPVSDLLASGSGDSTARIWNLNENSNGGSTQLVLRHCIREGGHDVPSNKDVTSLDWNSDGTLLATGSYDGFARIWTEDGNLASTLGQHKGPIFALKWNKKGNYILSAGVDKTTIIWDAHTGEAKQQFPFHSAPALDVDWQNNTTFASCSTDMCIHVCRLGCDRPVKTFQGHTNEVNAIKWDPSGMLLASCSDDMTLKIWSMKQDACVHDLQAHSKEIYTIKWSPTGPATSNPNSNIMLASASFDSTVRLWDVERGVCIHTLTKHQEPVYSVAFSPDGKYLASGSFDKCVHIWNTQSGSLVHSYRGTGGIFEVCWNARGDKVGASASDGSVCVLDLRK
The test is described as follows: MeCP2-TBL1 NanoLuc luciferase complementation assay (cell-free, extracts of transfected HEK293 cells).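 For Inhibition percent: each compound tested at 20 µM final concentration.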 In kind it is binding, human. In a few lines: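 Cell-free split NanoLuc: lysate of HEK293 cells co-expressing the MeCP2 C-terminal half-SmBiT and TBL1 WD domain-LgBiT, mixed 1:1 with furimazine. After 30 min at room temperature, luminescence was plate-median normalized.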

Where [1] appears, read: primary screen of the Asinex library, sheet "Sargen output Asinex library", one well per compound, Batch Ref. 1.
[2] abbreviates: primary screen of the Asinex library, sheet "Sargen output Asinex library", one well per compound.
[3] abbreviates: primary screen of Asinex library, single well per compound.

SMILES strings stand for the structures. Where only a bound is given, the exact number is not on record here.

One may read the inhibition as the drop in the measured response relative to a control, in per cent. Usually IC50 stands for the midpoint of a concentration-inhibition curve. Consider `CN(C)Cc1cccc(N/C(=C2\C(=O)Nc3cc(C(=O)N(C)C)ccc32)c2ccccc2)c1` [BIX02189, reference compound], for which the “inhibition in MeCP2-TBL1 assay compared with control PKA-based assay, individual validation” value (20 µM, n = 7, t-test) is listed as “did not have a statistically different effect”. For the same compound, the “separation between MeCP2-TBL1 inhibition and inhibition of the PKA control in dose response” value (0.3–60 μM, PKA-based assay run in parallel) was “only modest selectivity”. Moreover, the inhibition at 20 µM (ApexBio library screen, 20 µM, threshold SSMD* ≥ 3, read-out: inhibition in MeCP2-TBL1 assay after adjusting for activity in the PRKACA-PRKAR2A assay) was no less than 35%. Besides, for the setting “dose response 0.3–60 μM, triplicate, 30 min, luminescence normalized to DMSO, read-out: IC50, inhibition of MeCP2-TBL1 luminescence signal”, the IC50 came to 28 µM.
For `Cc1nc2c(c(Nc3ccccn3)n1)CCN(S(=O)(=O)c1cccc(C(F)(F)F)c1)CC2` [BDD_27755359], the Inhibition percent under setting [1] is 6.69%.
The same measure, in the same setting: with `CC(C)[C@H](NC(=O)[C@H](C)N)C(=O)N1CCC[C@H]2O[C@H]3c4cc(Cl)ccc4OC(C)(C)[C@@H]3C[C@H]21` [BDG_34017951] the figure was -1.63%; with `COC(=O)c1ccc(NC(=O)c2cccc(Br)c2OCC(=O)O)cc1` [BDG_51125744], 7.09%.
`CC1(C(=O)N2CCOCC(Cc3ccc4ccncc4c3)C2)CCN(CCc2ccccc2)CC1` (centres unmarked) [BDH_32362347]: the Inhibition percent under setting [2] is -4.04%.
Consider `Cc1ccc(C(=O)N2CCC3(CC2)COC(Cc2cccc(F)c2)C3)cc1NCc1ccccn1` (centres unmarked) [BDH_32362747], for which the Inhibition percent under setting [3] is on record as 0.11.
On to `CC(=O)N1CCC(Cc2cc(-c3ccccc3)no2)(C(=O)N2CCC(C(C)(C)C)CC2)C1` (centres unmarked) [BDF_23076577], for which the Inhibition percent under setting [1] is 2.56%.
For `Cc1cccc(Oc2cncc(C3CCCN(C(=O)c4ccc(-n5cccn5)nc4)C3)n2)c1` (centres unmarked) [BDH_32330488], the Inhibition percent under setting [2] is listed as 5.13%.
For the compound `CNc1nc(C2CCCCN2C(=O)CCCN(C)c2ccccc2)nc2c1CCN(C(C)=O)C2` (centres unmarked) [BDE_33628015], under setting [1], the Inhibition percent is given as -2.14%.
Same read-out and setting: the result for `O=C(CCCC(=O)N1CCCCC1c1n[nH]cc1-c1ccc(C(F)(F)F)cc1)Nc1ccccn1` (centres unmarked) [BDE_33631892] reads 4.13%; that for `COc1ccccc1Cc1cnc(C2CCCN(C(=O)c3ccc(Cc4ccccc4)nc3)C2)o1` (centres unmarked) [BDE_33511644], 3.75%; that for `O=C(Cn1ncc2ccccc2c1=O)N1CCCC(c2ncc(Cc3ccc(Cl)cc3)o2)C1` (centres unmarked) [BDE_33507934], 0.79%.
In the case of `C[C@]12C[C@@H](c3ccccc3)N(CC(=O)N3CC(=O)Nc4ccccc43)[C@H]1CCCCCN2` [BDH_32250993], under setting [3], the Inhibition percent came to 1.88.
`COc1cccc(Cc2cccc(C3CCCN(Cc4ccncc4)C3)n2)c1` (centres unmarked) [BDC_27849507]: under setting [3], the Inhibition percent is on record as -4.87.
Regarding `CC1(C)Oc2cc(OCCCNS(C)(=O)=O)ccc2[C@@H]2O[C@H](CCc3ccc(F)cc3)CC[C@H]21` [BDG_34121335], the Inhibition percent under setting [1] was 5.43%.
`COc1ccc([C@@H]2C[C@]3(C)NC(=O)CCC[C@@H]3N2CC(=O)Nc2ccc(OC(F)F)cc2)cc1` [BDH_33624459]: the Inhibition percent under setting [1] is reported as -1.08%.
With `CC(=O)N1CCC(Cc2ccc(F)cc2)(C(=O)N2CCCC(Cc3cccc(C)n3)C2)CC1` (centres unmarked) [BDH_32369388], the Inhibition percent under setting [3] is recorded as -2.67.
As for `CC(C)C[C@H](NC(=O)OCc1ccccc1)C(=O)N1CCC2(CC1)CO[C@@H]([C@@]1(C)CC[C@H](O)C(C)(C)O1)C2` [BDH_33767587], the Inhibition percent under setting [2] is on record as -2.43%.
In the case of `COc1ccc(OC)c(-c2cc(C(=O)N3CCCCC3c3ncc(Cc4ccccc4)o3)[nH]n2)c1` (centres unmarked) [BDE_33513704], the Inhibition percent under setting [1] is 18.69%.
In the case of `COc1ccc([C@@H]2C[C@]3(C)NC(=O)CCC[C@@H]3N2CC(=O)Nc2cccc(F)c2)cc1` [BDH_33626152], the Inhibition percent under setting [1] is -3.72%.
For `Cc1cc(Oc2ccccc2)nc(C2CCN(C(=O)c3ccnc(N4CCN(C)CC4)c3)CC2)n1` [BDH_32358107], the Inhibition percent under setting [2] is on record as -1.62%.
With `O=C(O)c1cc(F)ccc1Oc1ccccc1` [BDG_34062401], the Inhibition percent under setting [1] is -1.72%.
On to `O=C1CCCN1CCOc1cccc(C(=O)N2C3CCC2CC(Cc2cnc4[nH]ccc4c2)C3)c1` (centres unmarked) [BDH_32367285], for which the Inhibition percent under setting [1] is -0.20%.
On to `Cc1n[nH]c(C)c1S(=O)(=O)N1CCC2(CC1)CO[C@@H]1c3ccccc3OC(C)(C)[C@H]1C2` [BDG_33694386], for which the Inhibition percent under setting [2] was 2.05%.
Turning to `O=C1CCC[C@H]2[C@@H](C[C@@H](c3cccc(C(F)(F)F)c3)N2C(=O)CCc2ccccc2)N1` [BDG_27570843], the Inhibition percent under setting [1] is on record as 0.77%.
`COc1ccc(Oc2cncc(C3CCN(C(=O)C4(c5ccccc5)CCOCC4)CC3)n2)cc1` [BDH_32362557]: under setting [1], the Inhibition percent came out at 3.43%.
For `CC(=O)Nc1ccc(C(=O)N2CCOC(c3cccc(Cc4ccccc4Cl)n3)C2)cc1` (centres unmarked) [BDF_27578760], the Inhibition percent under setting [1] is on record as 0.59%.
As for `CC(=O)N[C@@]12CCN(CC(=O)Nc3ccc(C)c(F)c3)C[C@@H]1[C@@H](c1ccccc1)N(C(C)=O)C2` [BDH_33625631], under setting [2], the Inhibition percent came out at 2.58%.
With `CN1CCN(c2cc(C(=O)N3CCC(O)(CN4CCN(c5ccccc5)CC4)C3)ccn2)CC1` (centres unmarked) [BDH_32365527], the Inhibition percent under setting [3] is -1.97.
In the case of `COc1cccc2c1OC1(CCN(C)CC1)[C@H]1CCCO[C@H]21` [BDG_33900051], the Inhibition percent under setting [2] is listed as -1.32%.
In the case of `O=C(c1ccccc1OCCN1CCOCC1)N1CCCC(Cc2ccnc3ccccc23)CC1` (centres unmarked) [BDH_32353619], under setting [2], the Inhibition percent is listed as -1.00%.
As for `Cc1nnc(Nc2cccc(C3CN(C(=O)Cn4c(C)cc5ccccc54)CCO3)n2)s1` (centres unmarked) [BDF_25244494], the Inhibition percent under setting [1] is reported as -1.26%.
For the compound `O=C(COc1ncnc2ccccc12)N1C[C@@H]2CC[C@H](Oc3ccc(Cl)cc3)[C@@H]2C1` [BDG_33516371], under setting [1], the Inhibition percent came out at 0.45%.
Consider `CC1(C)Oc2ccc(Cl)cc2[C@@H]2O[C@@H]3CCN(CC(=O)N4CC(=O)Nc5ccccc54)C[C@@H]3C[C@H]21` [BDG_34134082], for which the Inhibition percent under setting [1] came out at 3.72%.
As to `O=C(N1CCC2(CC1)COC(Cc1cccc(F)c1)C2)C1(c2cccc(F)c2)CCOCC1` (centres unmarked) [BDH_32247901], the Inhibition percent under setting [2] worked out at 0.54%.
With `CC(=O)N[C@H]1C[C@@H](C(=O)N(C)C)N(CC(=O)Nc2ccc3c(c2)OCCO3)[C@H]1c1ccccc1` [BDH_33617336], the Inhibition percent under setting [3] is -1.52.
`C=CCC1(CC=C)CCN1C(=O)C1(Cc2ccc(-c3cccnc3)cc2)CCOCC1` [BDC_20667788]: the Inhibition percent under setting [1] is given as -1.31%.
For the compound `CC1(C)Oc2ccccc2[C@@H]2O[C@@H]3CCCN[C@@H]3C[C@H]21` [BDG_33956274], the Inhibition percent under setting [2] was -3.58%.
`Cc1cccc(CC(=O)N2CCCCC2c2ncc(C(=O)NCc3ccccc3)c(C)n2)c1` (centres unmarked) [BDC_23190776]: the Inhibition percent under setting [1] was -1.94%.
Still for that read-out and setting: the result for `COC(=O)C[C@H]1CC[C@H]2[C@H](O1)c1cc(-c3ccccc3)ccc1OC2(C)C` [BDG_34023292] reads 2.57%.
For the compound `CC(=O)N[C@@]12CN(C(C)=O)CC[C@@H]1[C@@H](c1ccccc1)N(CC(=O)Nc1cc(F)ccc1C)C2` [BDH_33621128], the Inhibition percent under setting [2] is on record as 1.60%.
Take `COc1ccc(C)c(NC(=O)CN2CC[C@@]3(NC(C)=O)CN(C(C)=O)[C@H](c4ccccc4)[C@H]3C2)c1` [BDH_33618460]: the Inhibition percent under setting [1] is given as 1.43%.
Turning to `CN1CCC(Cc2cccc(F)c2)(C(=O)N2CCC(Cc3cccc4cccnc34)CC2)CC1` [BDH_32354499], under setting [2], the Inhibition percent is on record as -1.74%.
Regarding `CC(=O)N1[C@H](Cc2ccccc2)[C@@H]2C[C@@]3(C)[C@H](CCC[C@@H]13)N2C(=O)CNC(=O)c1ccccc1` [BDG_33503016], the Inhibition percent under setting [1] is 3.61%.

The values above are taken from article PMC9995496, “A screen for MeCP2-TBL1 interaction inhibitors using a luminescence-based assay” (Scientific Reports, 2023).
